Key:
Assay type in all cases: in vivo
[1] = system: plants; experiment: Test D post-emergence, other plants of Tables D2 and D4; details: post-emergence
Procedure: A formulation containing 50 g/L of the test chemical was prepared by dissolving the active ingredient in a mixture of organic solvents and emulsifier, details of which are provided in the table. This formulation was then mixed with a small, variable amount of acetone to aid dissolution, before addition of a 0.2% v/v aqueous solution of an adjuvant, as the aqueous diluent, to form an aqueous spray solution which contains a predetermined concentration of the active ingredient.
This aqueous spray solution was then sprayed onto plants including maize and wheat that had been seed treated with a herbicide safener, after one day's cultivation (for pre-emergence) or after about 12 days' cultivation (for post-emergence). The plants were grown from seeds sown in standard soil, placed in a glasshouse under controlled conditions (at 24/18° C. or 20/16° C., day/night; 16 h light; 65% humidity). After spray application the plants were then grown in a glasshouse under the same conditions and watered twice daily. After 15 d for post-emergence and 20 DAA for pre-emergence the test was evaluated (100=total damage to plant; 0=no damage to plant).

[2] = system: ivy-leaved morning glory (Ipomoea hederacea, IPOHE); experiment: Test A pre-emergence, ivy-leaved morning glory; details: after 13 d
Outline: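 Damage rated visually at 13 d on a 0–100 scale (100 = plant killed). Pre-emergence spray one day after sowing; doses 15.625, 62.5 or 250 g/ha from an acetone/water 50:50 formulation with 0.5% Tween 20. Glasshouse at 24/16° C., 14 h photoperiod, 65% humidity.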

[3] = system: redroot pigweed (Amaranthus retroflexus, AMARE); experiment: Test A post-emergence, redroot pigweed; details: after 13 d
Outline: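 Visual damage rating (0 no damage to 100 total damage) was made 13 d after spraying. The spray was 15.625, 62.5 or 250 g/ha in 50:50 acetone/water with 0.5% Tween 20, applied to 8-day-old glasshouse plants kept at 24/16° C, 14 h light and 65% humidity.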

CN1CC(c2cc(C(F)(F)F)n(C)n2)C(C(=O)Nc2ccc(F)cc2C(C)(F)F)C1=O (racemic) [Compound 26]
damage to plant (100=total damage to plant; 0=no damage to plant), ABUTH ([1]; rate 130, evaluated after 15 d): 0 | damage to plant (100=total damage to plant; 0=no damage to plant), ABUTH ([1]; rate 250, evaluated after 15 d): 0 | damage to plant (100=total damage to plant; 0=no damage to plant), ABUTH ([1]; rate 500, evaluated after 15 d): 0 | damage to plant (100=total damage to plant; 0=no damage to plant), AMARE ([1]; rate 130, evaluated after 15 d): 0 | damage to plant (100=total damage to plant; 0=no damage to plant), AMARE ([1]; rate 250, evaluated after 15 d): 0 | damage to plant (100=total damage to plant; 0=no damage to plant), AMARE ([1]; rate 500, evaluated after 15 d): 0 | damage to plant (100=total damage to plant; 0=no damage to plant), BIDPI ([1]; rate 130, evaluated after 15 d): 0 | damage to plant (100=total damage to plant; 0=no damage to plant), BIDPI ([1]; rate 250, evaluated after 15 d): 0 | damage to plant (100=total damage to plant; 0=no damage to plant), BIDPI ([1]; rate 500, evaluated after 15 d): 0 | damage to plant (100=total damage to plant; 0=no damage to plant), BRAPL ([1]; rate 130, evaluated after 15 d): 50 | damage to plant (100=total damage to plant; 0=no damage to plant), BRAPL ([1]; rate 250, evaluated after 15 d): 60 | damage to plant (100=total damage to plant; 0=no damage to plant), BRAPL ([1]; rate 500, evaluated after 15 d): 80 | damage to plant (100=total damage to plant; 0=no damage to plant), CYPES ([1]; rate 130, evaluated after 15 d): 0 | damage to plant (100=total damage to plant; 0=no damage to plant), CYPES ([1]; rate 250, evaluated after 15 d): 0 | damage to plant (100=total damage to plant; 0=no damage to plant), CYPES ([1]; rate 500, evaluated after 15 d): 0 | damage to plant (100=total damage to plant; 0=no damage to plant), DIGSA ([1]; rate 130, evaluated after 15 d): 0 | damage to plant (100=total damage to plant; 0=no damage to plant), DIGSA ([1]; rate 250, evaluated after 15 d): 10 | damage to plant (100=total damage to plant; 0=no damage to plant), DIGSA ([1]; rate 500, evaluated after 15 d): 60 | damage to plant (100=total damage to plant; 0=no damage to plant), ECHCG ([1]; rate 130, evaluated after 15 d): 0 | damage to plant (100=total damage to plant; 0=no damage to plant), ECHCG ([1]; rate 250, evaluated after 15 d): 0 | damage to plant (100=total damage to plant; 0=no damage to plant), ECHCG ([1]; rate 500, evaluated after 15 d): 10 | damage to plant (100=total damage to plant; 0=no damage to plant), ELEIN ([1]; rate 130, evaluated after 15 d): 0 | damage to plant (100=total damage to plant; 0=no damage to plant), ELEIN ([1]; rate 250, evaluated after 15 d): 0 | damage to plant (100=total damage to plant; 0=no damage to plant), ELEIN ([1]; rate 500, evaluated after 15 d): 10 | damage to plant (100=total damage to plant; 0=no damage to plant), EPHHL ([1]; rate 130, evaluated after 15 d): 0 | damage to plant (100=total damage to plant; 0=no damage to plant), EPHHL ([1]; rate 250, evaluated after 15 d): 10 | damage to plant (100=total damage to plant; 0=no damage to plant), EPHHL ([1]; rate 500, evaluated after 15 d): 10 | damage to plant (100=total damage to plant; 0=no damage to plant), GLXMA ([1]; rate 130, evaluated after 15 d): 0 | damage to plant (100=total damage to plant; 0=no damage to plant), GLXMA ([1]; rate 250, evaluated after 15 d): 0 | damage to plant (100=total damage to plant; 0=no damage to plant), GLXMA ([1]; rate 500, evaluated after 15 d): 0 | damage to plant (100=total damage to plant; 0=no damage to plant), IPOHE ([1]; rate 130, evaluated after 15 d): 0 | damage to plant (100=total damage to plant; 0=no damage to plant), IPOHE ([1]; rate 250, evaluated after 15 d): 0 | damage to plant (100=total damage to plant; 0=no damage to plant), IPOHE ([1]; rate 500, evaluated after 15 d): 0 | damage to plant (100=total damage to plant; 0=no damage to plant), ORYSA ([1]; rate 130, evaluated after 15 d): 0 | damage to plant (100=total damage to plant; 0=no damage to plant), ORYSA ([1]; rate 250, evaluated after 15 d): 0 | damage to plant (100=total damage to plant; 0=no damage to plant), ORYSA ([1]; rate 500, evaluated after 15 d): 0 | damage to plant (100=total damage to plant; 0=no damage to plant), PANMI ([1]; rate 130, evaluated after 15 d): 0 | damage to plant (100=total damage to plant; 0=no damage to plant), PANMI ([1]; rate 250, evaluated after 15 d): 0 | damage to plant (100=total damage to plant; 0=no damage to plant), PANMI ([1]; rate 500, evaluated after 15 d): 0 | damage to plant (100=total damage to plant; 0=no damage to plant), SETFA ([1]; rate 130, evaluated after 15 d): 0 | damage to plant (100=total damage to plant; 0=no damage to plant), SETFA ([1]; rate 250, evaluated after 15 d): 60 | damage to plant (100=total damage to plant; 0=no damage to plant), SETFA ([1]; rate 500, evaluated after 15 d): 60 | damage to plant (100=total damage to plant; 0=no damage to plant), SORVU ([1]; rate 130, evaluated after 15 d): 0 | damage to plant (100=total damage to plant; 0=no damage to plant), SORVU ([1]; rate 250, evaluated after 15 d): 0 | damage to plant (100=total damage to plant; 0=no damage to plant), SORVU ([1]; rate 500, evaluated after 15 d): 0 | damage to plant (100=total damage; 0=no damage) IPOHE ([2]; Pre-Emergence at 62.5 g/ha): 30 | damage to plant (100=total damage; 0=no damage) IPOHE ([2]; Pre-Emergence at 250 g/ha): 70 | damage to plant (100=total damage; 0=no damage) AMARE ([3]; Post-Emergence at 62.5 g/ha): 0 | damage to plant (100=total damage; 0=no damage) AMARE ([3]; Post-Emergence at 250 g/ha): 0

— patent US20220281848A1, “PYRAZOLE-SUBSTITUTED PYRROLIDINONES AS HERBICIDES” (FMC Corporation, priority 2019, published 2022)
